# Tests used:
# PROV_ATCC_6380 = assay: Disk diffusion inhibition of RAM ingredients on MHA plates; type: cell-based, Proteus vulgaris; conditions: 100 μL dispensed on MHA plate, lawned with PROV_ATCC_6380
# Experimental: (§1) Thus, each of the ingredients was checked for potential inhibition. The first portion of this study was meant to determine the source of inhibition and to formulate different variations of a respiratory artificial matrix (RAM) to use as a pellet former. To complete this objective, 100 μL of each of the ingredients was dispensed onto the center of four different Mueller Hinton Agar (MHA) plates. After letting the plates dry for ˜2 hours they were lawned with the following four bacteria: ECOL_ATCC_25922, SAUR_ATCC_29213, PROV_ATCC_6380 and PRMI_IHMA_827374. The following day the plates were measured for zones of inhibition. Following this, the pellet former recipe was optimized to exclude non-sterile components. […] Many fresh positive specimens of varying viscosities were then tested with an assay that incorporated this pellet former by adding 500 μL to the capsule with 1500 μL of BAL or mini-BAL specimen.
# SAUR_ATCC_29213 = assay: as above; type: cell-based, Staphylococcus aureus; conditions: 100 μL dispensed on MHA plate, lawned with SAUR_ATCC_29213
# Experimental: as §1
# PRMI_IHMA_827374 = assay: as above; type: cell-based, Proteus mirabilis; conditions: 100 μL dispensed on MHA plate, lawned with PRMI_IHMA_827374
# Experimental: as §1
# [1] = tested on: ECOL_ATCC_25922, SAUR_ATCC_29213, PROV_ATCC_6380 and PRMI_IHMA_827374; assay: Disk diffusion inhibition of RAM ingredients, all four lawned bacteria; type: cell-based
# Experimental: Thus, each of the ingredients was checked for potential inhibition. […] To complete this objective, 100 μL of each of the ingredients was dispensed onto the center of four different Mueller Hinton Agar (MHA) plates. After letting the plates dry for ˜2 hours they were lawned with the following four bacteria: ECOL_ATCC_25922, SAUR_ATCC_29213, PROV_ATCC_6380 and PRMI_IHMA_827374. The following day the plates were measured for zones of inhibition.
# ECOL_ATCC_25922 = assay: Disk diffusion inhibition of RAM ingredients on MHA plates; type: cell-based, Escherichia coli; conditions: 100 μL dispensed on MHA plate, lawned with ECOL_ATCC_25922
# Experimental: as §1
smiles,measurement,setting,value
"O=C(O)CN(CCN(CC(=O)O)CC(=O)O)CCN(CC(=O)O)CC(=O)O [DTPA alone, DTPA]",Disk Diffusion Inhibition (zone of inhibition),PROV_ATCC_6380,26 mm
same,Disk Diffusion Inhibition (zone of inhibition),SAUR_ATCC_29213,19 mm
same,Disk Diffusion Inhibition (zone of inhibition),PRMI_IHMA_827374,30 mm
same,Inhibition by disk diffusion method,[1],inhibited each of the organisms tested
same,Disk Diffusion Inhibition (zone of inhibition),ECOL_ATCC_25922,7 mm

# Reference: US20210008541A1, “INSTRUMENT AND METHODS FOR AUTOMATED SAMPLE PREPARATION FOR MICROORGANISM IDENTIFICATION AND DIFFERENTIATION” (Accelerate Diagnostics, Inc., priority 2019, published 2021)
